This note sets out measurements from patent US20230136075A1, “TREATMENT FOR SEPSIS-INDUCED ORGAN DYSFUNCTION” (The Florey Institute of Neuroscience and Mental Health, priority 2020, published 2023).

Series [1] deals with patients with septic shock. Description: Randomised, double-blind, placebo-controlled trial of mega-dose vitamin C for septic shock (Example 4). Type of series: in vivo. Particulars: trial ongoing. From the text: A randomised, double-blind, placebo-controlled trial is being conducted to evaluate whether the administration of intravenous mega-dose vitamin C (60 g/day) increases urine output in patients with septic shock admitted to an intensive care unit (ICU).
Patients admitted to the Austin Hospital ICU with the primary diagnosis of septic shock defined according to the Sepsis-3 criteria are screened for eligibility. All the diagnostic criteria of septic shock (based on the SEPSIS-3 criteria) were to be fulfilled simultaneously within the last 24 hours, and vasopressors infused continuously at enrolment. Definition of sepsis is that of suspected or documented infection and an acute increase of ≥2 sequential organ failure assessment (SOFA) points consequent to the infection (a proxy of organ dysfunction). Definition of septic shock are sepsis and need for vasopressor therapy to keep mean arterial pressure (MAP) >65 mmHg for >2 hours and lactate >2 mmol/L, despite adequate fluid resuscitation.
All eligible patients with septic shock are randomised to receive either: • (i) Mega-dose Vitamin C intravenous infusion (sodium ascorbate 30 grams [100 ml] diluted with 150 ml of 5% dextrose infused intravenously over 1 hour followed by sodium ascorbate 30 grams [100 ml] diluted with 150 ml of 5% dextrose infused intravenously over 5 hours); or • (ii) Placebo intravenous infusion administered once (250 ml of 5% dextrose infused intravenously over 1 hour followed by 250 ml of 5% dextrose infused intravenously over 5 hours).
The study infusions are identical in appearance and are supplied in identical 250m1 5% dextrose bags prepared by ICU staff.
Vitamin C levels and arterial blood gas samples are measured at five time points (before loading infusion; after loading dose; 3 hours after the beginning of maintenance infusion; at the end of maintenance infusion; and, 24 hours following the beginning of the study infusion). A single urinary assessment is made of oxalate crystals obtained from testing a 24-hour collection of urine obtained at 24 hours following the beginning of the study infusion. Arterial blood gas samples are also measured to monitor for changes in serum sodium (Na+) and potassium (K+) levels at four time points (before loading infusion [baseline]; after loading dose; 3 hours after the beginning of maintenance infusion; and, at the end of maintenance infusion). The study infusion is stopped if the serum Na+ levels increases >10 mEq/L from the baseline value or absolute serum Na+ levels>160 mEq/L. Information is also collected on fluid balance, intravenous fluid therapy, use of vasopressor drugs and dosage, use of mechanical ventilation and renal replacement therapy and all biochemical and hematological and blood gas analysis variables as well as patient demographics, diagnosis, vital signs and illness severity score, ICU and hospital outcomes (e.g. admission and discharge dates as well as ICU and hospital survival status).
The primary efficacy outcome for this study is the cumulative urine output for 24 consecutive hours following the beginning of the study infusion.
Data analysis is performed on an intention-to-treat basis. Summary statistics are used to describe the clinical data and presented as mean±standard deviation, median with interquartile range (IQR) or percentages as appropriate. Chi-squared analysis with Fisher's exact test (as appropriate), and Student's t-test (Mann Whitney U test for non-normal distributions) are used to compare data between the active treatment group and the control group with statistical significance declared for probability values of less than 0.05. Analysis of the outcome of excluded patients due to other trials etc. is in accordance with CONSORT guidelines.

The subject of series [2] is septic human patient with severe COVID-19. In words: Mega-dose sodium ascorbate in one septic patient with severe COVID-19 (Example 2). It counts as in vivo. From the text:
FIG. 6. Changes in systemic hemodynamics and renal function in response to mega-dose sodium ascorbate (Na Asc) treatment in one septic human patient with a severe case of COVID-19 disease 2019 (n=1). Norepinephrine dose (A), arterial blood oxygen tension (PO2) (filled squares) and inspired oxygen fraction (open circles) (B), mean arterial pressure (C), serum creatinine (D), heart rate (E), and urine output (F) are presented at pre-treatment (time 0), after a 30-min infusion of Na Asc bolus therapy (BT, 30 g), and then at hourly intervals during an infusion of Na Asc for 6.5 hr (4.6 g/hr).
A person was admitted to ICU with severe COVID-19 disease. The patient presented with acute respiratory distress syndrome (ARDS), vasodilatory shock and acute kidney injury, with a temperature of 40° C. The patient was intubated and placed on a ventilator. At noon, their urinary output was 10 ml/hr.
The patient (weighing approximately 80 kg) was administered 30 g of intravenous sodium ascorbate over 30 minutes beginning at 1 pm, followed by an infusion of 30 g sodium ascorbate over the next 6 hours.

On to `O=C1O[C@H]([C@@H](O)CO)C([O-])=C1O.[Na+]` [sodium ascorbate], for which the body temperature result in series [1] (60 g/day iv) is recorded as “decreases”. Besides, in series [1] (60 g/day iv), the “oxalate excretion in the urine” value is listed as “no evidence of increased oxalate excretion”. Moreover, in series [1] (60 g/day iv), the “requirement for vasopressor support” value was “decreases”. The serum sodium levels entry in series [1] (60 g/day iv) is “no evidence of increased oxalate excretion in the urine or increases in serum sodium levels”. Besides, the urinary output result in series [1] (60 g/day iv) was “increases”; in series [2] (1st hour post initiation of treatment, 10 ml/hr prior to treatment) it was 175 mL/h; in series [2] (2nd hour post initiation of treatment), 160 mL/h; in series [2] (3rd hour post initiation of treatment), 400 mL/h; in series [2] (4th hour post initiation of treatment), 180 mL/h; in series [2] (5th hour post initiation of treatment), 125 mL/h. Further, the urinary output in series [2] (6th hour post initiation of treatment) came to 145 mL/h. Moreover, in series [1] (sodium ascorbate 30 g over 1 hour then 30 g over 5 hours iv (60 g/day)), the safety concern signal entry is recorded as “no safety concern signal”. Also, the “arterial blood oxygen levels” value in series [2] (after 6 hours of sodium ascorbate treatment, 65 pre-treatment, FiO2:40%) was found to be 90 mm Hg. Further, in series [2] (after the treatment (intensive care day 15)), the time to extubation was 12 days. Also, the “time to discharge from hospital without any complications” value in series [2] (after treatment) worked out at 22 days. The lactate in series [2] (during the treatment, decreased from 2.6) is recorded as 1.9 mmol/L. In series [2] (during the treatment, dropped from 0.45, positive end-expiratory pressure 14 cm H2O), the FiO2 was determined as 0.30. Moreover, the heart rate in series [2] (during the treatment, dropped from 130) was 105 beats/min. Besides, the “time in which blood pressure normalised, vasopressor requirements reduced and renal function improved” value in series [2] (human patient with COVID-19, mega dose intravenous vitamin C) is recorded as “less than six hours”. For the same compound, the urine flow in series [2] (increase during the treatment, from 10) is 400 mL/h. The plasma creatinine in series [2] (over the course of sodium ascorbate administration (30 g over 30 minutes then 30 g infusion), 118 before treatment, n=1) amounted to 84 µmol/L. Besides, the norepinephrine infusion in series [2] (over the course of sodium ascorbate administration, 8 before) came to 0 µg/min.
